Assays:
[1] = tested on: Human immunodeficiency virus 1; experiment: Inhibition of HIV1 replication in human H9 cells assessed as inhibition of supernatant reverse transcriptase and p24 level; assay type: functional, organism-based; details: Human immunodeficiency virus 1, H9
[2] = tested on: H9; experiment: Cytotoxicity in human H9 cells upto 2 uM; assay type: cell-based
[3] = target: Protein kinase C (PKC); experiment: Displacement of [3H]PDBu from rat brain membrane PKC; assay type: tissue-based

CCCC/C=C/C=C/CC(=O)O[C@@]12C[C@H](C)[C@@]3(O)[C@@H](C=C(CO)C[C@]4(O)C(=O)C(C)=C[C@@H]34)[C@@H]1C2(C)C
IC50 [1]: 6 nM
Activity [2]: Non-toxic
IC50 [3]: 17 nM
